# Data: article PMC11530689, “Anti colorectal cancer activity and in silico studies of novel pyridine nortopsentin analog as cyclin dependent kinase 6 inhibitor” (Scientific Reports, 2024)
# Key:
# [1] = test system: HCT116 cells; test: Cell cycle analysis by FACS (PI staining); type: cell-based, human; settings: HCT116, treated with IC50 for 48 h, control 41.93%
# Method: Briefly, HCT116 cells were treated with 4i compound’s IC50 for 48 h. Then, the cells were fixed in cold 70% ethanol solution for 2 h at 4 °C and centrifuged at 800 g for 5 min. The ethanol solution was removed. PBS was used to wash the cells twice. DNA was stained with 1 µg/mL propidium iodide (PI) solution (Sigma-Aldrich, St. Louis, MO, USA), supplemented with 100 µg/mL RNase A (Roche, Basel, Switzerland) for 30 min in the dark at 37 °C. After centrifugation, the cells were suspended in phosphate buffer solution and the fluorescence was measured using flow cytometry by FACSCalibur (BD Biosciences, Mountain View, CA). The data were analyzed using the CellQuest software (BD Biosciences).
# [2] = test system: CDK2 gene expression; test: Gene expression by quantitative real-time PCR, CDK2; type: cell-based, human; settings: IC50 dose, 48 h, normalized to GAPDH, vs control
# Method: (§1) The cells were seeded in a six-well plate at a concentration of 3 × 10^5 cells/well. After a 24 h incubation, the IC50 dose of active compound 4i was applied to each well for 48 h. The cells were collected and centrifuged at 2500 rpm for 15 min at 4 °C. The total RNA isolation kit (RNeasy extraction kit—QIAGEN) was used to isolate RNA according to the manufacturer’s instructions.
# (§2) Gene expression analysis by quantitative real-time PCR. The levels of gene expression of CDK2, CDK4 and CDK6 were determined using iScript One-Step RT-PCR kit with SYBR Green (BIORAD) according to the manufacturer protocol. The sequences of the used primers are illustrated in Table 4. The genes expression was normalized to GAPDH as the housekeeping gene. The protocol used for cDNA synthesis was: 10 min at 50 °C, iScript Reverse transcriptase inactivation: 5 min at 95 °C and PCR cycling and detection (30 to 45 cycles): 10 s at 95 °C and 30 s at 55 °C to 60 °C.
# [3] = test system: CDK6 gene expression; test: Gene expression by quantitative real-time PCR, CDK6; type: cell-based, human; settings: IC50 dose, 48 h, normalized to GAPDH, vs control
# Method: as §1, §2
# [4] = molecular target: CDK2/Cyclin E1 (Homo sapiens, UniProt P24941); test: Cyclin dependent kinase enzymatic activity assay (ADP-Glo); type: biochemical
# Method: (§3) ADP-Glo™ Kinase Assay kit (Promega, USA) was used for the enzymatic activity analysis according to the manufacturer’s instructions. In brief, to each well we added 1 μl of inhibitor, 2 μl of each cyclin dependent kinase enzymes, and 2 μl of substrate/ATP mix and incubated at room temperature for 60 min. After that 5 μl of ADP‐Glo™ reagent was added and incubated at room temperature for 40 min. 10 μl of kinase detection reagent was added and incubated at room temperature for 30 min, then the luminescence was measured.
# [5] = molecular target: CDK6/Cyclin D3 (Homo sapiens, UniProt Q00534); test: as above; type: biochemical
# CDK6/Cyclin D3, sequence (Q00534 whole entry): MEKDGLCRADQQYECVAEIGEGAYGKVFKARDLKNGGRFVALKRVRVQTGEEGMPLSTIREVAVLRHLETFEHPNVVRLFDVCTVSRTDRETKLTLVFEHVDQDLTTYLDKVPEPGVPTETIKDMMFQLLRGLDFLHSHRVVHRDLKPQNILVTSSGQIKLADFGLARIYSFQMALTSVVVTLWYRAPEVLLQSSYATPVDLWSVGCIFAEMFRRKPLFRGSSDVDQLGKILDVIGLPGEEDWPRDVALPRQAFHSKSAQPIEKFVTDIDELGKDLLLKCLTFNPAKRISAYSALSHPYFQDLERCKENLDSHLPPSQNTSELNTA
# CDK6/Cyclin D3, sequence (P30281 whole entry partner): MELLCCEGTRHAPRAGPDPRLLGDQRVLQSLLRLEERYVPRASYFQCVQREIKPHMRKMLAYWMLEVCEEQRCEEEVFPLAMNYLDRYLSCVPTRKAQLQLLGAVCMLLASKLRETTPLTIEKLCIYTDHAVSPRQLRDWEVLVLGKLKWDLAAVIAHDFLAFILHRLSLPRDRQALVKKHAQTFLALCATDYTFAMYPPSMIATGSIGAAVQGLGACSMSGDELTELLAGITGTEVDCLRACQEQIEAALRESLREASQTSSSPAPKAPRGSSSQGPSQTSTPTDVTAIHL
# Method: as §3
# [6] = molecular target: CDK4/Cyclin D3 (Homo sapiens, UniProt P11802); test: as above; type: biochemical
# CDK4/Cyclin D3, sequence (P11802 whole entry): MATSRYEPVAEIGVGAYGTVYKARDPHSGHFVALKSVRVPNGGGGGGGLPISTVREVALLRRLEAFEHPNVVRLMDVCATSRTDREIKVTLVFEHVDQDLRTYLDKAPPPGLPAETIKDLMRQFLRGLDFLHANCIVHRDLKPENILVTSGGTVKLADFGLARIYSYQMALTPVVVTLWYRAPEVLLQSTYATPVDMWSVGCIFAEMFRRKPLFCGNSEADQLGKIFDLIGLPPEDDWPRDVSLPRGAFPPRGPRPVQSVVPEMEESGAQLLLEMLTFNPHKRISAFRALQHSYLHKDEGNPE
# CDK4/Cyclin D3, sequence (P30281 whole entry partner): as the sequence (P30281 whole entry partner) above
# Method: as §3
# [7] = test system: 60 different cancer cell lines; test: NCI screen against 60 cancer cell lines, overall; type: cell-based; settings: single concentration 10^−5 M
# Method: The cytotoxic activity of nortopsintin analogs (4a-4j) was determined by the national cancer institute (NCI, Bethesda, Maryland, USA) against 60 different cancer cell lines at a single concentration of (10^-5 M). For the determination of IC50 value, we used MTT assay kit (Sigma) according to the manufacturer's protocol. HCT-116 cells were seeded into a 96-well plate at a concentration of 20,000 cells/well. After 24 h, the media was aspirated and replaced with serum-free media containing serial dilutions of the 4i compound. […] The percentage of cytotoxicity was calculated using the following equation: % Cytotoxicity = [1 - ([…])] × 100.
# [8] = test system: CDK4 gene expression; test: Gene expression by quantitative real-time PCR, CDK4; type: cell-based, human; settings: IC50 dose, 48 h, normalized to GAPDH, vs control
# Method: as §1, §2
compound,measurement,setting,value
CN(C)c1ccc(-c2cc(-c3c[nH]c4ccccc34)nc(-c3c[nH]c4ccccc34)c2C#N)cc1 [4i],cells at G1 phase (%DIP G1),[1],47.62%
same,Relative gene expression of CDK2,[2],significantly suppress the expression
same,Relative gene expression of CDK6,[3],significantly suppress the expression
same,IC50,[4],658 nM
same,IC50,[5],98 nM
same,IC50,[6],265 nM
same,cytotoxic / antiproliferative activity over the panel,[7],highest level of cytotoxic activity
same,Relative gene expression of CDK4,[8],significantly suppress the expression
